# Laboratory results: publication PMC3407203, “Bisphenol A Binds to the Local Anesthetic Receptor Site to Block the Human Cardiac Sodium Channel” (PLoS ONE, 2012)
# Tests used:
# [1] = target: T1, hNav1.5 (Homo sapiens, UniProt Q14524); experiment: Tonic block of hNav1.5 currents, whole-cell patch clamp in transfected HEK293 cells; type: cell-based; conditions: for Kd: test pulse −10 mV at 0.2 Hz, room temperature, read-out: Kd of tonic block (Hill fit)
# T1 construct: expressed in transfected cells; host or cells: HEK293
# T1 sequence (Q14524 whole entry): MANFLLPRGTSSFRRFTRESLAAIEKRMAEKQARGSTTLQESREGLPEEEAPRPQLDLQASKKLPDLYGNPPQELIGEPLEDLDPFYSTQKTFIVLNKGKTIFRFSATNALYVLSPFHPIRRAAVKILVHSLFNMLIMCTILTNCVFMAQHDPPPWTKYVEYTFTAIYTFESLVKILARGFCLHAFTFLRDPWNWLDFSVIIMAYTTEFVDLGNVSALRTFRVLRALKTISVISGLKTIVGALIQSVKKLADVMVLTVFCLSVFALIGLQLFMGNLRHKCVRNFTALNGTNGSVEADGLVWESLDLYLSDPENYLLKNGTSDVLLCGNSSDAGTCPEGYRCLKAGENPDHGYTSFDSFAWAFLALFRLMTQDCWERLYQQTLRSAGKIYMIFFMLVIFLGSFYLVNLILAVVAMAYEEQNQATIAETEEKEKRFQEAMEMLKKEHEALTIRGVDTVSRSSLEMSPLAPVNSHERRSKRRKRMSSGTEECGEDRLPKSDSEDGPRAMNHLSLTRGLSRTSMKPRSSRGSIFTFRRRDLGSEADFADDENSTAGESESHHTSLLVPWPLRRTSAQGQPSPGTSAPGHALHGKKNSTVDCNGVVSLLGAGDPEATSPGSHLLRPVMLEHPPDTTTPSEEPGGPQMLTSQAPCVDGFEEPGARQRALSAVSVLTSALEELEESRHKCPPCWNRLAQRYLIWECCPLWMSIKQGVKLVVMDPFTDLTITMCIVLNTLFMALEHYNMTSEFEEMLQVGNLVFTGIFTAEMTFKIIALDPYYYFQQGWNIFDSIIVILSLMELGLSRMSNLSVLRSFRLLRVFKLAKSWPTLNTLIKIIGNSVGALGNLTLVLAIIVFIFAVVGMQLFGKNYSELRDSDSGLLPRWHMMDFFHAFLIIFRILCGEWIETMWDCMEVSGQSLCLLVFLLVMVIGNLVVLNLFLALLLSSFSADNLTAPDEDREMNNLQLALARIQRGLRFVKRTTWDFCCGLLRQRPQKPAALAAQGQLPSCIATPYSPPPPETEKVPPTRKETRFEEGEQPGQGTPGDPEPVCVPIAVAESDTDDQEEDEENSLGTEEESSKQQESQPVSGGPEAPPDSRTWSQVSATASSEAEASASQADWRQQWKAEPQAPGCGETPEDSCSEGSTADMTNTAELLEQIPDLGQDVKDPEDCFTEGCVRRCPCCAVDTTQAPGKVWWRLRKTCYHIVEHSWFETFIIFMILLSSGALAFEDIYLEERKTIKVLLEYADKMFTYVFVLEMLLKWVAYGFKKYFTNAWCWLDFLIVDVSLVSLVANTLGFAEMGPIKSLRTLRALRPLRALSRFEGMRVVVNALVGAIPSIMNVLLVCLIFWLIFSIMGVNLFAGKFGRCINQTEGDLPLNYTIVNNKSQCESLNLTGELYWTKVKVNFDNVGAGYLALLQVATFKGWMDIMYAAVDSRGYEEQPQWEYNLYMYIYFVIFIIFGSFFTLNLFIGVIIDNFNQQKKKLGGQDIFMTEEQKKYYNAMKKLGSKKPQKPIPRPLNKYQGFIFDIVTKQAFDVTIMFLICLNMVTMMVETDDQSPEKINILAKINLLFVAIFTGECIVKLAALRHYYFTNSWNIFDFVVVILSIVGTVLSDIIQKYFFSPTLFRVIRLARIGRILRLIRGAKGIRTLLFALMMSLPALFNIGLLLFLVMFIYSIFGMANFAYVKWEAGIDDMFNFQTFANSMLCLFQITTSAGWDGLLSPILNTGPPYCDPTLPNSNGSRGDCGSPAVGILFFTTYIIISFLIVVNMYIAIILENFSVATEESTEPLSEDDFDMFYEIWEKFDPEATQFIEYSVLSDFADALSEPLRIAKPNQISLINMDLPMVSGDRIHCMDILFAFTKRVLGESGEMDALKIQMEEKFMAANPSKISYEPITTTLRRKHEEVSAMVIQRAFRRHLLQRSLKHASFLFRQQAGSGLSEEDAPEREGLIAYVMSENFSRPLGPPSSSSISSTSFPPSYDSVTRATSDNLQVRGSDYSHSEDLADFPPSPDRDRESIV
# Description: (§1) The plasmid DNA of hNav1.5 in pTracer was used (gift from Dirk Isbrandt, Hamburg, Germany) for mutagenesis of F1760A (Qickchange XL kit, Qiagen GmbH, Hilden) and was performed according to the instructions of the manufacturer. HEK293 cells were maintained in Dulbecco’s Modified Eagle’s Medium (Invitrogen, Carlsbad, CA), supplemented with 10% fetal bovine serum, 100 U/ml penicillin and 100 µg/ml streptomycin, and incubated at 37°C with 5% CO2. […] Cells were transfected at 40–70% confluency using Nanofectin (PAA Laboratories GmbH, Pasching, Austria), according to manufacturer’s instructions, with 1 µg of hNav1.5 or the F1760A mutant of hNav1.5 and 0.5 µg EGFP, and distributed onto several 35 mm dishes on the following day. […] Only cells with robust green fluorescence were included in the analysis.
# Whole-cell patch-clamp experiments were performed at room temperature using an Axopatch 200A operated by Clampex 9.2 software (Axon Instruments, Molecular Devices, USA) and 1–2 MΩ glass electrodes (WPI Inc, USA). […] All reagents were purchased from Sigma Chemical Company (Deisenhofen, Germany) unless otherwise noted. The tip of a constantly running gravity-driven perfusion system was positioned close to the recorded cell and drugs were applied by switching to bath solution containing the indicated concentration. […] Capacitive transients were cancelled, and series resistances (<5 MΩ) were compensated by 65–95%. Leak currents were subtracted digitally online using the P/4 procedure following the test pulses except for recordings of use dependency, where no leak correction was used. Currents were filtered at 10 kHz and sampled at 100 kHz, except for steady-state fast inactivation, where a sampling rate of 20 kHz was used.Recordings were obtained 4 min after establishing the whole-cell configuration. […] The block occurring 15 pulses after BPA or ETOH application (Ipost/Ipre = [drawing 1] ) was used as indicator for tonic block. The resulting single dose response data were fitted with a Hill function using a Levenberg-Marquard algorithm of Origin’s non linear curve fitter, where start and end were set to 0 and 1, respectively.
# [2] = target: T1, hNav1.5; experiment: Use-dependent current decline of hNav1.5, repetitive pulsing, whole-cell patch clamp; type: cell-based; conditions: for use-dependent block: 30 µM, WT hNav1.5, Vhold −120 mV
# Text: […] Current responses were normalized to the first recorded pulse and the available currents at the 30th pulses were compared.
# [3] = target: T2, F1760A mutant of hNav1.5 (Homo sapiens, UniProt Q14524, F1760A); experiment: Use-dependent current decline of F1760A mutant hNav1.5, repetitive pulsing, whole-cell patch clamp; type: cell-based
# T2 construct: expressed in transfected cells; host or cells: HEK293
# T2 sequence (Q14524 whole entry F1760A): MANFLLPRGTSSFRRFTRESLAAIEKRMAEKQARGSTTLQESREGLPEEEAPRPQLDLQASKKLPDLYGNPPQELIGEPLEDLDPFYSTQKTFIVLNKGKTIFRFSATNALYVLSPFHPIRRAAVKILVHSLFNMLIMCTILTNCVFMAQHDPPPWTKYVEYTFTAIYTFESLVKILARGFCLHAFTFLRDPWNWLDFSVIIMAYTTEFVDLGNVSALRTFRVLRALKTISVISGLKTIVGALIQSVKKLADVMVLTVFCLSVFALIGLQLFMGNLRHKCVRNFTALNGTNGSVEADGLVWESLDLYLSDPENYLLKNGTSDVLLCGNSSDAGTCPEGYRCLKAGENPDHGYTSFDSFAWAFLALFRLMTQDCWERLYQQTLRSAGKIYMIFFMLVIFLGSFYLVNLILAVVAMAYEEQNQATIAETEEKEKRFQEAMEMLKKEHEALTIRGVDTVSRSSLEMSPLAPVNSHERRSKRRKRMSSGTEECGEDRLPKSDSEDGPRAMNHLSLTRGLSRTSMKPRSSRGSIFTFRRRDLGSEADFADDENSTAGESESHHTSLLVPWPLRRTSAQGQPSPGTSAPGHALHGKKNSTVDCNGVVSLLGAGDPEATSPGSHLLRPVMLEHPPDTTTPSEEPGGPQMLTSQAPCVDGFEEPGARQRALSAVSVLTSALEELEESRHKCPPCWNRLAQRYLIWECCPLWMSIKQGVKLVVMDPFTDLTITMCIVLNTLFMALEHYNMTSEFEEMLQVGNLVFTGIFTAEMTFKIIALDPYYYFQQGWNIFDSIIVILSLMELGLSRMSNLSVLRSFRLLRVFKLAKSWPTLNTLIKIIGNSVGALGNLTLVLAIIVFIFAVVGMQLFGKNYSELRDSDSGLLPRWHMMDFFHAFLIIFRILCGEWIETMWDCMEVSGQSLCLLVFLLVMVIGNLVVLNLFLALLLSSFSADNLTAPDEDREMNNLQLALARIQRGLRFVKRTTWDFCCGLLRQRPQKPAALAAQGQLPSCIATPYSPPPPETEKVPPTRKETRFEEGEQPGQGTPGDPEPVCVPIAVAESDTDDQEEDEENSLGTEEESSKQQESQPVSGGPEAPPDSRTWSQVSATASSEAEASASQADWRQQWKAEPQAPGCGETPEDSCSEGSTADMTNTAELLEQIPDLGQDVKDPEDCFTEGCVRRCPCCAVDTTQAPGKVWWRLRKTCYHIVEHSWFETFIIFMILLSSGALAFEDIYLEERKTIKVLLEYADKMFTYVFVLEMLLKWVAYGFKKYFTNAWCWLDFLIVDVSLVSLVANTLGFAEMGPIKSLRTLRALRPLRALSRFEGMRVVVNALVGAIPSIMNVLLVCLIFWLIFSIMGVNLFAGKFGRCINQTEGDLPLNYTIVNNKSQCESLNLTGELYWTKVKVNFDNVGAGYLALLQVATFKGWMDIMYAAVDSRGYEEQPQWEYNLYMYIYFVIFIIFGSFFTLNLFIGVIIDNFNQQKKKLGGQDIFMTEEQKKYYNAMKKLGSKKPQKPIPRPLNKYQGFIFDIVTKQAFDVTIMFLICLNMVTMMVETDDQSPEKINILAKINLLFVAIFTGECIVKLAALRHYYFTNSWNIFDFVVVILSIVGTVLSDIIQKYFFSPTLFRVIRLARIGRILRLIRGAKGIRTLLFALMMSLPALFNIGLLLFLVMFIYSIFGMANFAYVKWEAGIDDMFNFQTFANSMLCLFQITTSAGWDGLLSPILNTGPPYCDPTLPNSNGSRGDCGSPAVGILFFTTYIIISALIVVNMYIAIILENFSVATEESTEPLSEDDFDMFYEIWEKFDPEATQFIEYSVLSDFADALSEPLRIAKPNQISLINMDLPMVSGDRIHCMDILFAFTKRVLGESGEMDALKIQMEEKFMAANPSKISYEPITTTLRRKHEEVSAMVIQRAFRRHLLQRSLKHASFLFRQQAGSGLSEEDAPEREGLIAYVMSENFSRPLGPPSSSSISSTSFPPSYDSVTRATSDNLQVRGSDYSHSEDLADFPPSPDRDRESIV
# Description: The plasmid DNA of hNav1.5 in pTracer was used (gift from Dirk Isbrandt, Hamburg, Germany) for mutagenesis of […] kit, Qiagen GmbH, Hilden) and was performed according to the instructions of the manufacturer. HEK293 cells were maintained in Dulbecco's Modified Eagle's Medium (Invitrogen, Carlsbad, CA), supplemented with 10% fetal bovine serum, 100 U/ml penicillin and 100 μg/ml streptomycin, and incubated at 37°C with 5% CO2. Briefly, HEK293 cells were plated at low density on 35 mm dishes 24 hours before transfection. […] Electrophysiology was performed 18-28 hours following transfections. Only cells with robust green fluorescence were included in the analysis.
# [4] = target: T2, F1760A mutant of hNav1.5; experiment: Tonic block of F1760A mutant hNav1.5 currents, whole-cell patch clamp in transfected HEK293 cells; type: cell-based; conditions: Vhold −120 mV, tested every 5 s, read-out: Kd of tonic block (Hill fit)
# Description: as §1
# Whole-cell patch-clamp experiments were performed at room temperature using an Axopatch 200A operated by Clampex 9.2 software (Axon Instruments, Molecular Devices, USA) and 1–2 MΩ glass electrodes (WPI Inc, USA). […] All reagents were purchased from Sigma Chemical Company (Deisenhofen, Germany) unless otherwise noted. The tip of a constantly running gravity-driven perfusion system was positioned close to the recorded cell and drugs were applied by switching to bath solution containing the indicated concentration. […]
# [5] = target: T1, hNav1.5; experiment: Voltage dependence of steady-state fast inactivation of hNav1.5, whole-cell patch clamp; type: cell-based
# Description: Whole-cell patch-clamp experiments were performed at room temperature using an Axopatch 200A operated by Clampex 9.2 software (Axon Instruments, Molecular Devices, USA) and 1–2 MΩ glass electrodes (WPI Inc, USA). […] All reagents were purchased from Sigma Chemical Company (Deisenhofen, Germany) unless otherwise noted. The tip of a constantly running gravity-driven perfusion system was positioned close to the recorded cell and drugs were applied by switching to bath solution containing the indicated concentration. […] Capacitive transients were cancelled, and series resistances (<5 MΩ) were compensated by 65–95%. Leak currents were subtracted digitally online using the P/4 procedure following the test pulses except for recordings of use dependency, where no leak correction was used. […] Fitting parameters (Kd) are given as best fit ± standard error.
# [6] = target: T1, hNav1.5; experiment: Activation and current decay of hNav1.5, whole-cell patch clamp; type: cell-based; conditions: post 100 µM BPA
# Description: . The sodium channel conductance GNa was calculated using the following equation: […]
# where INa is the amplitude of the current at the voltage Vm, and Erev is the reversal potential for sodium, which was determined for each cell individually. Activation curves were derived by plotting normalized GNa as a function of test potential and fitted using the Boltzmann equation: […]
# where GNa,Max is the maximum conductance, Vhalf is the membrane potential at half-maximal activation, Vm is the membrane voltage and k is the slope factor.
# Decay time constants were determined by fitting current recordings at test pulses to −10 mV for 40 ms from peak with a single exponential fit.
# [7] = target: T1, hNav1.5; experiment: Dissociation constants for resting (Kr) and inactivated (Ki) hNav1.5 channels, whole-cell patch clamp; type: cell-based; conditions: determined with 30 µM drug; read-out: Kr, dissociation constant for resting channels
# Description: The dissociation constant for the resting channels, Kr, of the applied drugs were determined according to [17], [18]: with [drug] being the drug concentration present and Brest being the detected block of resting channels. […] This potential was determined for each cell individually by the above described protocol for steady-state fast inactivation.
# [8] = set-up: method as in PMID 12387626; conditions: cited from earlier work
# [9] = cited from earlier work
Compound,"tonic block ([1]; 30 µM, WT hNav1.5)",use-dependent block [2],tonic and use-dependent block in F1760A compared to WT ([3]; 150 µM),"Kd ([1]; WT hNav1.5, Vhold −90 mV) [µM]","Kd ([1]; WT hNav1.5, Vhold −120 mV) [µM]","lowest concentration tested at which hNav1.5 currents were not affected (no effect level, NOEL) ([1]; tonic block) [nM]","lowest concentration to have a significant effect on hNav1.5 ([1]; tonic block, Fig. 1A) [µM]",Kd [4] [µM],"hyperpolarizing shift of Vhalf of steady-state fast inactivation ([5]; 100 µM, n = 9) [mV]","slope factor k of steady-state fast inactivation ([5]; post application of 100 µM BPA, pre 5.6±0.3)","Vhalf of steady-state fast inactivation ([5]; post application of 100 µM BPA, pre −89.3±1.5 mV, n = 9) [mV]","τ of single exponential fit of current decay ([6]; test pulse to −10 mV, pre 1.1±0.08 ms) [ms]",Vhalf of activation ([6]; pre −32.0±2.5 mV) [mV],Kd [7] [µM],"use-dependent current decline ([2]; all frequencies tested (1 to 100 Hz), WT hNav1.5)",use-dependent block in F1760A compared to WT ([3]; 30 µM),half-life in the body [8] [h],mean human blood levels [9] [nM],highest reported blood level ([9]; human) [nM]
"Cc1cccc(C)c1OCC(C)N (centres unmarked) [mexiletine, reference compound]",almost absent,significant use-dependent block,reduced tonic and use-dependent block,–,–,–,–,–,–,–,–,–,–,–,–,–,–,–,–
"CC(C)(c1ccc(O)cc1)c1ccc(O)cc1 [BPA, Bisphenol A]",–,significant use-dependent block,–,25.4 ± 1.3,74 ± 7.6,100,1,104 ± 6.7,15.8±1.1,6.5±0.2,−105.1±2.1,1.13 ± 0.1,−32.9±3.7,58.6 ± 8,enhance use-dependent current decline,robustly reduced,< 6,~10,290
